Data reported in patent US20140328940A1, “MODULATION OF AXON DEGENERATION” (Genentech, Inc., priority 2009, published 2014).
Entries after “also recorded” stand apart in the source; their conditions may differ.

Key:
[1] = system: DRGs; experiment: anti-NGF antibody (NGF withdrawal) screen for inhibitors of axon degeneration in DRG explants; assay type: cell-based, mouse; conditions: inhibitor 100 μM or 10 μM added 1 hour before 25 μg/ml anti-NGF; 20 hours; actin stain
Method: The anti-NGF antibody model described above in Example 1 was used in a screen for inhibitors of neuron or axon degeneration. A library of more than 400 small molecules (Tocris Bioscience) was tested to see which, if any, modulate degeneration observed in the presence of anti-NGF antibodies.
Mouse E13.5 embryos were dissected and placed into L15 medium (Invitrogen). The spinal cord was dissected out from the embryos with DRGs attached. The spinal cords with DRGs attached were placed into L15 medium+5% goat serum (Gibco) on ice. The DRGs were removed using a tungsten needle and the remaining spinal cord was disposed of. Eight well slides were filled with N3-F12 solution (23 ml Ham's F12, 1 ml N3 supplement, and 1 ml 1 M glucose) to which was added 25 ng/ml NGF (Roche). (N3 supplement was made by dilution of N3 100× concentrate, which was made by mixing the following ingredients, in the following order: 5.0 ml Hank's buffered saline solution (HBSS; Ca, Mg free; Invitrogen), 1.0 ml bovine serum albumin (10 mg/ml in HBSS=150 μm), 2.0 ml Transferrin (T1147-1G, human, 100 mg/ml in HBSS=1.1 mM), 1.0 ml sodium selenite (S9133-1MG, 0.01 mg/ml in HBSS 58 μM), 0.4 ml putrescine dihydrochloride (P5780-5G, 80 mg/ml in HBSS=500 mM), 0.2 ml progesterone (P8783-5G, 0.125 mg/ml in absolute ethanol=400 μM), 0.02 ml corticosterone (C2505-500MG, 2 mg/ml in absolute ethanol=5.8 mM), 0.1 ml triiodothyonine, sodium salt (T6397-100MG, 0.2 mg/ml in 0.01 N NaOH=300 μM), 0.4 ml insulin (16634-250MG, bovine pancreas, 241 U/mg, 25 mg/ml in 20 mM HCl=4.4 mM), for a total volume of 10.02 ml (can be stored at −20° C.). An N3 supplement stock was made by combining the following: 10 ml Pen/Strep (100×, Gibco), 10 ml glutamine (200 mM, Gibco), 10 ml MEM vitamins (100×, Gibco), 10 ml N3 concentrate (100×, see above), for a total volume of 40 ml. The mixture was filter sterilized using a 0.22 μm filter, and 1-2 ml aliquots were stored at −20° C.).
The DRGs were sectioned into halves and placed in the center of each well of an 8-chamber slide (BD Biocoat PDL/Laminin coated glass, Becton Dickinson). The DRGs were permitted to attach to the slide at room temperature for 5-10 minutes, followed by an overnight incubation at 37° C. Inhibitors of choice were added at a concentration of 100 μM (top row) or 10 μM (bottom row) 1 hour before adding anti NGF antibodies. The anti-NGF antibodies were added to the right half of the slide (4 wells) at a concentration of 25 μg/ml. After incubation for 20 hours at 37° C., the slides were fixed with 30% sucrose/8% paraformaldehyde (PFA) by adding 250 μl of the fix solution directly to the 250 μl of culture medium. (To make the 30% sucrose/8% PFA solution, the following ingredients were added to a 600 ml beaker including a stir bar: 250 ml 16% PFA (cat#15710-S, Electron Microscopy Sciences), 50 ml 10×PBS pH 7.4, and 150 g sucrose. The solution was mixed under low heat until dissolved, and then 6-8 drops of 1 M NaOH were added to bring the pH to 7.4. The volume was then brought to 500 ml with water in a graduated cylinder. The solution was mixed well, placed in aliquots, and frozen.) The s ides were fixed for 30 minutes, followed by washing once with PBS. All cells were labeled with an actin stain (Alexa-568 conjugated phalloidin; 1:40; Invitrogen), a membrane dye (DiO; 1:200; Invitrogen), and a DNA stain (Hoechst 33258; 1:10,000; Invitrogen) in 0.1% Triton and 1% goat serum for 2 hours at room temperature. […]

[2] = system: DRG neurons (axon vs. cell body compartment); experiment: Campenot chamber local axon degeneration (anti-NGF in axon compartment); assay type: cell-based, mouse
Method: Teflon dividers (Tyler Research) were cleaned by washing in water and wiping them clean of any residual grease. Dividers were then soaked in Nochromix (Godax Laboratories)/sulfuric acid overnight, rinsed five times in distilled and autoclaved water (SQ water), boiled for 30 minutes, and then air-dried before use
Mouse laminin (5 μg/ml in sterile filtered water; Invitrogen) was added to PDL coated 35 mm dishes (BD Biosciences) and they were incubated for 1 hour at 37° C., followed by two rinses in SQ water. The dishes were vacuum-dried and then air-dried in a laminar flow hood for 15 minutes. Prepared dishes were then scored with a pin rake (Tyler Research). […] High vacuum grease (VWR) was added to each Teflon divider under a dissection scope. The laminin coated PDL dishes were inverted and dropped onto the Teflon divider, with additional pressure added by use of a toothpick in the non-track-containing regions. Dishes were incubated for 1 hour at 37° C. Five hundred microliters of NBM+MC (50 ng/ml NGF) solution was added to each of the side compartments, and a grease barrier was added in front of the center cell slot.
Free E13.5 spinal cords were dissected from mouse embryos and placed into NBM+MC (25 ng/ml NGF) solution. DRGs were detached from the spinal cord with a tungsten needle. An NBM+MC-lubricated P200 pipette was used to move DRGs into a 1.5 ml tube. DRGs were pelleted with a tabletop centrifuge for 30 seconds. The supernate was discarded and 0.05% Trypsin/EDTA (cold) was added. The pellet was resolubilized with a pipette and incubated at 37° C. for 15 minutes with constant agitation (650 RPM). The sample was again centrifuged and the supernate discarded. The pellet was resuspended in warm NBM+MC (50 ng/ml NGF) solution and triturated with a flamed glass pipette 20 times, followed by trituration with a fire-bored glass pipette another 20 times. The samples were again centrifuged and the resulting pellets were resuspended in 0.5 ml NBM+MC (50 ng/ml NGF) solution. The cells were diluted to a final concentration of 2.5×10^6 cells/ml. The cell suspensions were loaded into a 1 ml syringe with a 22 gauge needle. The center slot of the Campenot divider was filled using the syringe (to a volume of at least 50 μl). The Campenot chamber was incubated overnight at 37° C. 2.5 ml NGF+MC (50 ng/ml NGF) solution was added to the center compartment and the grease gate was removed. The outer medium (cell body compartment) was replaced after three days with 2.5 ml NBM+MC medium (with 25 ng/ml NGF). After five days in culture, one distal compartment was washed three times with warmed NBM+MC (no NGF) solution. After the third wash, 500 μl NBM+MC (no NGF) solution was added to the axon compartment in combination with either 0.5% DMSO or an inhibitor. The cell body compartment was replaced with 2.5 ml NBM+MC medium (with 25 ng/ml NGF) containing either 0.5% DMSO or inhibitor.
After 28 hours of anti-NGF antibody treatment, 8% PFA/30% sucrose solution (see above) was added directly to the culture medium at a 1:1 dilution and incubated for 30 minutes. The Teflon divider was removed after the first 15 minutes of addition. The system was washed once with 2.5 ml PBS prior to immunostaining. Neurons were blocked in 5% BSA/0.2% triton in PBS for 30 minutes. The primary antibody Tuj1 (Covance) was added to a final dilution of 1:1000 in PBS containing 2% BSA and incubated overnight at 4° C. The dish was washed once with PBS. […] The dish was washed twice with PBS, and a 22×22 mm coverslip (VWR) was added with 350 μl of fluoromount G (Electron Microscopy Sciences). The neurons were visualized by use of a fluorescence microscope.
As described above, E13.5 DRGs were isolated and grown for 5 days in a Campenot chamber.

[3] = system: cerebellar granule neurons (CGNs); experiment: serum deprivation/KCl reduction degeneration of cerebellar granule neurons; assay type: cell-based, mouse; conditions: 5 μM; 5 mM KCl, 24 hours
[4] = system: CaMKK; conditions: CaMKK activity after ionomycin stimulation, transfected HeLa cells; published source; read-out: Cellular IC50; cited from earlier work
[5] = system: p38 MAPK; conditions: LPS-induced TNF-alpha production, human monocytes; published source; read-out: Cellular IC50; cited from earlier work

Compound: O=C(O)c1ccc2c3c1cccc3c(=O)n1c3ccccc3nc21 [STO-609]
- Comments (observations on compounds found to protect against neurodegeneration) [1]: Partial
- Axon Compartment (protection of NGF-deprived axons) ([2]; inhibitor 15 μM in axon compartment): Yes (1)
- Cell Body Compartment (protection of NGF-deprived axons) ([2]; inhibitor 15 μM in cell body compartment): No (1)
- protection of cerebellar granule neurons from serum deprivation/KCl reduction [3]: protect
- IC50 [4]: 3000 nM

Compound: COc1nccc(-c2c(-c3ccc(F)cc3)ncn2C2CCC(O)CC2)n1 (centres unmarked) [SB239063]
- formation of varicosities in locally NGF-deprived axons ([2]; 30 μM SB415, 15 μM Act D in cell body compartment, 10 μM AG555, 30 μM SB239 in axon compartment): fewer varicosities
- Axon Compartment (protection of NGF-deprived axons) ([2]; inhibitor 5 μM in axon compartment): Yes (1)
- Cell Body Compartment (protection of NGF-deprived axons) ([2]; inhibitor 5 μM in cell body compartment): No (1)
- Axon Compartment (protection of NGF-deprived axons) ([2]; inhibitor 30 μM in axon compartment, anti-NGF on axons 28 hours, number in parentheses not explained): Yes (3)
- Axon Compartment (protection of NGF-deprived axons) ([2]; inhibitor 30 μM in axon compartment, anti-NGF on axons 28 hours, number in parentheses not explained, listed as SB239): did not degenerate; also recorded: protected from local degeneration
- Cell Body Compartment (protection of NGF-deprived axons) ([2]; inhibitor 30 μM in cell body compartment, anti-NGF on axons 28 hours, number in parentheses not explained): No (3)
- Cell Body Compartment (protection of NGF-deprived axons) ([2]; inhibitor 30 μM in cell body compartment, anti-NGF on axons 28 hours, number in parentheses not explained, listed as SB239): failed to prevent degeneration
- protection of cerebellar granule neurons from serum deprivation/KCl reduction [3]: protect
- IC50 [5]: 350 nM
